Test results reported in US10858360B2, “Tricyclic gyrase inhibitors” (priority 2011, dated 2020).
In brackets after ≈: the same amount, converted by molar mass. Where two headings read alike, the source gives them in different places.

How the values were obtained:
E. coli ATCC 25922 = test: MIC, E. coli ATCC 25922; assay type: cell-based; conditions: for MIC: Escherichia coli, ATCC25922, E. coli
S. aureus ATCC 13709 = test: MIC, S. aureus ATCC 13709 (Alamar Blue broth microdilution); assay type: cell-based; conditions: for MIC: Staphylococcus aureus, ATCC13709, S. aureus
[1] = E. coli, Alamar Blue read after overnight incubation at 35° C.
[2] = S. aureus, Alamar Blue read after overnight incubation at 35° C.
[3] = Alamar Blue read after overnight incubation at 35° C.

CNc1cc(F)cc2c1[nH]c1nc(Oc3cncc(C#N)c3)nc(N3CC4CC(N)C4C3)c12 (stereo not shown) [4.053]
MIC Ec (E. coli ATCC 25922; [1]): ≤0.5 µg/mL | MIC Sa (S. aureus ATCC 13709; [2]): ≤0.5 µg/mL

CNc1cccc2c1[nH]c1nc(Oc3cncnc3)nc(N3CC[C@@H](N)C3)c12 [3.4]
MIC (E. coli ATCC 25922; [3]): ≤ 0.5 µg/mL | MIC (S. aureus ATCC 13709; [3]): 0.5 µg/mL (≈ 1.33 µM)

CCOC1CN(c2nc(Oc3cnc(C)nc3)nc3[nH]c4c(NC)cc(F)cc4c23)CC1N (mixture of isomers) [4.147]
MIC Ec (E. coli ATCC 25922; [1]): 1 µg/mL | MIC Sa (S. aureus ATCC 13709; [2]): ≤0.5 µg/mL

CNc1cccc2c1[nH]c1nc(Oc3cnc(C)nc3)nc(N3CCC4(CC4N)C3)c12 (stereo not shown) [3.42]
MIC (E. coli ATCC 25922; [3]): 2 µg/mL (≈ 4.8 µM) | MIC (S. aureus ATCC 13709; [3]): ≤ 0.5 µg/mL

CNc1cc(F)cc2c1[nH]c1nc(Oc3cnc(CO)nc3)nc(N3CC4CC(N)C4C3)c12 (stereo not shown) [4.386]
MIC (E. coli ATCC 25922; [3]): ≤ 0.5 µg/mL | MIC (S. aureus ATCC 13709; [3]): ≤ 0.5 µg/mL

CNc1cc(F)c(F)c2c1[nH]c1nc(Oc3cnc(C)nc3)nc(N3CCC4(CC4N)C3)c12 (stereo not shown) [5.02]
MIC Ec (E. coli ATCC 25922; [1]): ≤0.5 µg/mL | MIC Sa (S. aureus ATCC 13709; [2]): ≤0.5 µg/mL

CNc1cc(F)cc2c1[nH]c1nc(Oc3ccc4c(c3)C(=O)NC4)nc(N3CC4[C@H](C[C@H]4N)C3)c12 (stereo partly shown) [4.267]
MIC (E. coli ATCC 25922; [3]): 4 µg/mL (≈ 8.45 µM) | MIC (S. aureus ATCC 13709; [3]): ≤ 0.5 µg/mL

CNc1cc(F)cc2c1[nH]c1nc(Oc3cncc(Cl)c3)nc(N3CC4(CCC4N)C3)c12 (stereo not shown) [4.275]
MIC Ec (E. coli ATCC 25922; [1]): ≤0.5 µg/mL | MIC Sa (S. aureus ATCC 13709; [2]): ≤0.5 µg/mL

CNc1ncnc2c1[nH]c1nc(Oc3cnc(C)nc3)nc(N3CC4C(N)C4C3)c12 (stereo not shown) [7.05]
MIC (E. coli ATCC 25922; [3]): 64 µg/mL (≈ 158 µM) | MIC (S. aureus ATCC 13709; [3]): 8 µg/mL (≈ 19.8 µM)

CNc1cc(Cl)cc2c1[nH]c1nc(Oc3cnc(N)nc3)nc(N3CC4C(N)C4C3)c12 (stereo not shown) [6.17]
MIC Ec (E. coli ATCC 25922): ≤0.5 µg/mL | MIC Sa (S. aureus ATCC 13709): ≤0.5 µg/mL

CNc1cc(F)cc2c1[nH]c1nc(Oc3cnc4c(c3)C(=O)N(C)C4C)nc(N3CC4CC3C[C@@H]4N)c12 (stereo partly shown) [4.398]
MIC (E. coli ATCC 25922; [3]): ≤ 0.5 µg/mL | MIC (S. aureus ATCC 13709; [3]): ≤ 0.5 µg/mL

CNc1cc(Cl)cc2c1[nH]c1nc(Oc3cncnc3)nc(N3CCC4(CC4N)C3)c12 (stereo not shown) [6.11]
MIC Ec (E. coli ATCC 25922): ≤0.5 µg/mL | MIC Sa (S. aureus ATCC 13709): ≤0.5 µg/mL

CNc1cccc2c1[nH]c1nc(Sc3cnc4ccc[n+]([O-])c4c3)nc(N3CC4C(N)C4C3)c12 (stereo not shown) [1.66]
MIC Ec (E. coli ATCC 25922; [1]): ≤0.5 µg/mL | MIC Sa (S. aureus ATCC 13709; [2]): ≤0.13 µg/mL

CNc1cccc2c1[nH]c1nc(Oc3cnc(C)nc3)nc(N3CC4C(C3)C4NCC3CC3)c12 (stereo not shown) [3.14]
MIC (E. coli ATCC 25922; [3]): 2 µg/mL (≈ 4.38 µM) | MIC (S. aureus ATCC 13709; [3]): ≤ 0.5 µg/mL

Nc1cccc2c1[nH]c1nc(Sc3cnc4ccc[n+]([O-])c4c3)nc(N3CC4C(N)C4C3)c12 (stereo not shown) [1.8]
MIC (E. coli ATCC 25922; [3]): > 64 µg/mL | MIC (S. aureus ATCC 13709; [3]): 64 µg/mL (≈ 140 µM)

CNc1cc(F)c(C)c2c1[nH]c1nc(Oc3cnc(C)nc3)nc(NCCCN)c12 [6.21]
MIC Ec (E. coli ATCC 25922): >16 µg/mL | MIC Sa (S. aureus ATCC 13709): >16 µg/mL

CNc1cc(F)cc2c1[nH]c1nc(Oc3cnc(C4CCC4)nc3)nc(N3C[C@H](N)C4(CC4)C3)c12 [4.287]
MIC (E. coli ATCC 25922; [3]): ≤ 0.5 µg/mL | MIC (S. aureus ATCC 13709; [3]): ≤ 0.5 µg/mL

CNc1cc(F)cc2c1[nH]c1nc(Oc3cnc(C4CC4)nc3)nc(N3CC4CCC(CN)C4C3)c12 (stereo not shown) [4.253]
MIC (E. coli ATCC 25922; [3]): ≤ 0.5 µg/mL | MIC (S. aureus ATCC 13709; [3]): ≤ 0.5 µg/mL

CNc1cc(F)cc2c1[nH]c1nc(Oc3cnc(C(F)(F)F)nc3)nc(N3C[C@@H]4[C@@H](N)[C@@H]4C3)c12 [4.280]
MIC (E. coli ATCC 25922; [3]): ≤ 0.5 µg/mL | MIC (S. aureus ATCC 13709; [3]): ≤ 0.5 µg/mL

CNc1cc(F)cc2c1[nH]c1nc(Oc3cnc4cccnc4c3)nc(N3CC4[C@H](C[C@H]4N)C3)c12 (stereo partly shown) [4.043]
MIC (E. coli ATCC 25922; [3]): ≤ 0.5 µg/mL | MIC (S. aureus ATCC 13709; [3]): ≤ 0.5 µg/mL

CNc1cc(F)cc2c1[nH]c1nc(Oc3cnc(C(C)(C)C)nc3)nc(N3CC4C(N)C4C3)c12 (stereo not shown) [4.314]
MIC (E. coli ATCC 25922; [3]): ≤ 0.5 µg/mL | MIC (S. aureus ATCC 13709; [3]): ≤ 0.5 µg/mL

CNc1cccc2c1[nH]c1nc(Oc3cncc(C(=O)O)c3)nc(N3CC4C(N)C4C3)c12 (stereo not shown) [3.20]
MIC (E. coli ATCC 25922; [3]): > 8 µg/mL | MIC (S. aureus ATCC 13709; [3]): > 8 µg/mL

CNc1cc(F)cc2c1[nH]c1nc(Oc3cnc(C4CC4)nc3)nc(N3CC4CCNC4C3)c12 (stereo not shown) [4.250]
MIC Ec (E. coli ATCC 25922; [1]): ≤0.5 µg/mL | MIC Sa (S. aureus ATCC 13709; [2]): ≤0.5 µg/mL

CNc1cc(F)cc2c1[nH]c1nc(Sc3cnc4ccc[n+]([O-])c4c3)nc(N3CCC4(CC4N)C3)c12 (stereo not shown) [1.64]
MIC (E. coli ATCC 25922; [3]): ≤ 0.5 µg/mL | MIC (S. aureus ATCC 13709; [3]): ≤ 0.5 µg/mL

CNc1cc(F)cc2c1[nH]c1nc(Oc3cnc(C)nc3)nc(N3CC(N)C4(CC4)C3)c12 (stereo not shown) [4.065]
MIC Ec (E. coli ATCC 25922; [1]): ≤0.5 µg/mL | MIC Sa (S. aureus ATCC 13709; [2]): ≤0.5 µg/mL

CNc1cc(C)cc2c1[nH]c1nc(Oc3cnc(C)nc3)nc(N3CC4C(N)C4C3)c12 (stereo not shown) [6.26]
MIC Ec (E. coli ATCC 25922): 1 µg/mL (≈ 2.4 µM) | MIC Sa (S. aureus ATCC 13709): ≤0.5 µg/mL

CNc1cc(F)cc2c1[nH]c1nc(Oc3cncc(Cl)c3)nc(N3CCC4(C[C@H]4N)C3)c12 (stereo partly shown) [4.278]
MIC (E. coli ATCC 25922; [3]): ≤ 0.5 µg/mL | MIC (S. aureus ATCC 13709; [3]): ≤ 0.5 µg/mL

CNc1ncnc2c1[nH]c1nc(Oc3cncnc3)nc(Oc3cncnc3)c12 [7.10]
MIC (E. coli ATCC 25922; [3]): > 64 µg/mL | MIC (S. aureus ATCC 13709; [3]): > 64 µg/mL

CNc1cc(F)cc2c1[nH]c1nc(Oc3cnc(C)nc3)nc(N3CC4CC(N)C4C3)c12 (stereo not shown) [4.110]
MIC Ec (E. coli ATCC 25922; [1]): ≤0.5 µg/mL | MIC Sa (S. aureus ATCC 13709; [2]): ≤0.5 µg/mL

CNc1cc(F)cc2c1[nH]c1nc(Oc3cnc4cccnc4c3)nc(N3CC[C@]4(C[C@@H]4N)C3)c12 [4.040]
MIC (E. coli ATCC 25922; [3]): ≤ 0.5 µg/mL | MIC (S. aureus ATCC 13709; [3]): ≤ 0.5 µg/mL

CNc1cccc2c1[nH]c1nc(Sc3cnc4ccc[n+]([O-])c4c3)nc(N3CC4CNC4C3)c12 (stereo not shown) [1.32]
MIC (E. coli ATCC 25922; [3]): 4 µg/mL (≈ 8.5 µM) | MIC (S. aureus ATCC 13709; [3]): ≤ 0.5 µg/mL

CNc1cc(F)cc2c1[nH]c1nc(Oc3cncc(OC)c3)nc(N3CC4C(N)C4C3)c12 (stereo not shown) [4.164]
MIC (E. coli ATCC 25922; [3]): 1 µg/mL (≈ 2.3 µM) | MIC (S. aureus ATCC 13709; [3]): ≤ 0.5 µg/mL
